Data as given in US20030157516A1, “G protein coupled receptor” (priority 2000, published 2003).
Where two headings read alike, the source gives them in different places.

Assays:
Assay type in all cases: cell-based
[1] = target: T1, adenine binding rat receptor (Rattus norvegicus, UniProt Q7TN49); assay: cAMP measurements on CHO cells permanently transfected (clone 28)
T1 construct: expressed in transfected cells; host or cells: CHO cells, transient, lipofectamine PLUS
T1 sequence (Q7TN49 1-304): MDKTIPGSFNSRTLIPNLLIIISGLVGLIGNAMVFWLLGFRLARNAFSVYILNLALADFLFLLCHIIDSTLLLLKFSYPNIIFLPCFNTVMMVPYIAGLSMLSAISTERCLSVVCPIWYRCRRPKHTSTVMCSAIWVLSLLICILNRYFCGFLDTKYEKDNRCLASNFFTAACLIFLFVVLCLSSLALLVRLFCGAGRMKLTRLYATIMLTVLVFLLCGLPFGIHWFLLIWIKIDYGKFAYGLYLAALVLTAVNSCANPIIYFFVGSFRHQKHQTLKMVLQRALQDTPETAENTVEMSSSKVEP
Description: (§1) For permanently transfected CHO cells, cAMP measurements were performed using the indirect RIA kit from NEN (Belgium).
(§2) a) Methods: Two days before the experiment the cells were seeded out in a 96 well plate at a density required for approximately 90% confluence at the day of the experiment. After removal of the growth medium, the cells were washed twice with a controlled salt solution (CSS) containing 25 mM Tris-HCl, pH 7.4, 120 mM NaCl, 5.4 mM KCl, 0.8 mM MgCl2, 1.8 mM CaCl2, 15 mM glucose and 15 mg/l phenol red, with an addition of a phosphodiesterase inhibitor IBMX (3-isobutyl-1-methylxanthine) in a concentration of 1 mM and […]. Basal cAMP levels were determined in CSS containing these additives and maximally stimulated cAMP levels were determined in the presence of 50 μM forskolin. For testing agonistic activity, the compounds were incubated with the cells for 20 minutes at 37° C. The reaction was stopped by addition of ice cold HClO4 (1N) and stored at −20° C. After thawing the mixtures were neutralized with an equivalent amount of phosphate buffered KOH, left at 4° C. during 30 minutes to allow the salts to precipitate and centrifuged at 2,000 RPM for 5 minutes at 4° C.
(§3) For the quantitative determination of the cAMP levels, a 96-well Flashplate radioimmunoassay kit from NEN was used, according to the protocol of the supplier. The sigmoid concentration response curves (duplicate points) were analyzed using the GraphPad Prism program.

wild type CHO cells [2] = assay: cAMP measurements on wild type CHO cells; settings: wild type CHO cells
Description: as §1, §2, §3

wild type CHO cells [3] = assay: Intracellular Ca2+ measurements (FLIPR) on wild type CHO cells
rat adenine binding GPCR = target: T2, rat adenine binding GPCR (Rattus norvegicus, UniProt Q7TN49); assay: Intracellular Ca2+ measurements (FLIPR) on permanently transfected CHO cells, clone 28; design: The full length reading frame was inserted into the mammalian expression vector pcDNA3; expressed in transfected cells
T2 sequence (Q7TN49 1-304): T1 sequence (Q7TN49 1-304)
Description: Finally, measurements of intracellular Ca^2+ were performed on the best functionally coupled CHO cell line, clone 28. The effect of Na-butyrate pre-treatment was investigated using a dose response curve of adenine.
a) Methods—Two days before the experiment the cells were seeded out in a 96 well plate at a density required for approximately 90% cell confluence at the day of the experiment. Compounds were diluted in calcium buffer (5 mM HEPES/NaOH, pH 7.4, 140 mM NaCl, 1 mM MgCl2, 5 mM KCl, 10 mM glucose, 1.25 mM CaCl2, 2.5 mM probenecid, pH 7.4), twice their final concentrations. For basal values, calcium buffer was applied and for the maximum response, 10 μM ionomycin was used. The growth medium was removed and the cells were loaded in serum-free growth medium supplemented with probenecid (5 mM), the indicator Fluo-3 (2 μM), 20 mM HEPES/NaOH, pH, 7.4 and 0.1% BSA in the incubator at 37° C. After 60 minutes incubation, the cells were washed 3 times with the calcium buffer. 100 μl of the diluted compounds was transferred to the wells and changes in intracellular calcium levels were measured with the FLIPR® (Fluorometric Imaging Plate Reader, Molecular Devices). Each data point was run in duplicate and the peak of the Ca ^2+-transient was considered as the relevant signal. The sigmoid concentration response curves were analyzed using the GraphPad Prism program.

adenine binding GPCR = target: T3, adenine binding GPCR (Rattus norvegicus, UniProt Q7TN49); assay: FLIPR Ca2+ transient assay, antagonism of 30 nM adenine challenge; settings: 15 minutes incubation with compound (30 μM to 30 pM), then challenge with 30 nM adenine
T3 construct: The full length reading frame was inserted into the mammalian expression vector pcDNA3; expressed in transfected cells; host or cells: HEK293 cells stably transfected with pLEC/Gqi or pLEC/Gqo
T3 sequence (Q7TN49 1-304): T1 sequence (Q7TN49 1-304)
Text: The full length reading frame was inserted into the mammalian expression vector pcDNA3 (Invitrogen, Carlsbad, Calif., U.S.A.) and the resulting expression construct was transiently transfected with the FuGENE 6 reagent (Roche Molecular Biochemicals, Mannheim, Germany) into HEK293 cells stably transfected (E. Bender, unpublished) with pLEC/Gqi or pLEC/Gqo (Molecular Devices, Sunnyvale, Calif., U.S.A.). The cells were loaded with Fluo-4 (Molecular Probes, Eugene, Oreg., U.S.A.) according to the recommendations of the supplier.
After a 15 minutes incubation at room temperature, the same cells were challenged with 30 nM adenine, to detect antagonistic properties of molecules added in the first round of superfusion.

[4] = clone 28, Na-butyrate treated cells
[5] = clone 28, non-Na-butyrate treated cells

Row | EC50 ([1]; after Na-butyrate induction, read-out: EC50) [nM] | EC50 ([1]; transfected cells (clone 28), 0.5% hiFCS, Na-butyrate induction, read-out: pEC50 (converted)) [nM] | EC50 ([1]; transfected cells (clone 28), 10% hiFCS, Na-butyrate induction, read-out: pEC50 (converted)) [nM] | EC50 (rat adenine binding GPCR; [4]) [nM] | increase in RFU (rat adenine binding GPCR; [4]) [fold] | EC50 (rat adenine binding GPCR; [5]) [nM] | increase of the basal relative fluorescence units (RFU) (rat adenine binding GPCR; [5]) [fold] | antagonistic effect (adenine binding GPCR) | Compound | cAMP response (wild type CHO cells [2]) | intracellular Ca2+ response (wild type CHO cells [3])
1 | 3 | 2.88 | 2.95 | 14.8 | 3 | 72.4 | 1.25 | – | Nc1ncnc2nc[nH]c12 [Adenine, adenine] | did not show any response | did not show any response
2 | – | – | – | – | – | – | – | did not elicit antagonistic effects | Nc1ncnc2c1ncn2[C@@H]1O[C@H](COP(=O)(O)O)[C@@H](O)[C@H]1O [AMP] | – | –
